Patent publication US7163940B2, “Pyrazolopyridinyl pyrimidine therapeutic compounds” (SmithKline Beecham Corporation, priority 2000, dated 2007)

System: HSV-1
Experiment: HSV-1 replication in infected Vero 76 cells, viral DNA hybridization capture assay
Format: cell-based
Details: Human alphaherpesvirus 1, Vero 76, HSV-1, Vero 76 cells, MOI=0.001, 40–48 hours incubation
Method: Vero 76 cells were maintained in MEM with Earle's salts, L-glutamine, 8% FBS (Hyclone, A-1111-L) and 100 units/mL Penicillin-100 μg/mL Streptomycin. For assay conditions, FBS was reduced to 2%. Cells are seeded into 96-well tissue culture plates at a density of 5×10^4 cells/well after being incubated for 45 min at 37° C. in the presence of HSV-1 or HSV-2 (MOI=0.001). Test compounds are added to the wells and the plates are incubated at 37° C. for 40–48 hours. Cell lysates are prepared as follows: media was removed and replaced with 150 μL/well 0.2 N NaOH with 1% Igepal CA 630 or NP-40. Plates were incubated up to 14 days at room temperature in a humidified chamber to prevent evaporation. • (b) Preparation of Detection DNA.
For the detection probe, a gel-purified, digoxigenin-labeled, […] PCR fragment of the HSV UL-15 sequence was utilized. PCR conditions included 0.5 μM primers, 180 μM dTP, 20 μM dUTP-digoxigenin (Boehringer Mannheim 1558706), 200 μM each of dATP, dCTP, and dGTP, 1×PCR Buffer II (Perkin Elmer), 2.5 mM MgCl2, 0.025 units/μL of AmpliTaq Gold polymerase (Perkin Elmer), and 5 ng of gel-purified HSV DNA per 100 μL. Extension conditions were 10 min at 95° C., followed by 30 cycles of 95° C. for 1 min, 55° C. for 30 sec, and 72° C. for 2 min. The amplification was completed with a 10-min incubation at 72° C. Primers were selected to amplify a 728 bp probe spanning a section of the HSV1 UL15 open reading frame (nucleotides 249–977). Single-stranded transcripts were purified with Promega M13 Wizard kits. The final product was mixed 1:1 with a mixture of 6 M GuSCN, 100 mM EDTA and 200 μg/mL herring sperm DNA and stored at 4° C. • (c) Preparation of Capture Plates.
The capture DNA plasmid (HSV UL13 region in pUC) was linearized by cutting with Xba I, denatured for 15 min at 95° C. and diluted immediately into Reacti-Bind DNA Coating Solution (Pierce, 17250, diluted 1:1 with TE buffer, pH 8) at 1 ng/μL 75 μL/well were added to Corning (#3922 or 9690) white 96-well plates and incubated at room temperature for at least 4 hrs before washing twice with 300 μL/well 0.2×SSC/0.05% Tween-20 (SSC/T buffer). The plates were then incubated overnight at room temperature with 150 μL/well 0.2 N NaOH, 1% IGEPAL and 10 μg/mL herring sperm DNA. • (d) Hybridization.
Twenty-seven (27) μL of cell lysate was combined with 45 μL of hybridization solution (final concentration: 3M GuSCN, 50 mM EDTA, 100 μg/ml salmon sperm DNA, 5× Denhardt's solution, 0.25×APE, and 5 ng of the digoxigenin-labeled detection probe). APE is 1.5 M NH4-acetate, 0.15 M ammonium phosphate, and 5 mM EDTA adjusted to pH 6.0. Mineral oil (50 μL) was added to prevent evaporation. The hybridization plates were incubated at 95° C. for 10 minutes to denature the DNA, then incubated at 42° C. overnight. The wells were washed 6× with 300 μL/well SSC/T buffer then incubated with 75 μL/well anti-digoxigenin-HRP-conjugated antibody (Boehringer Mannheim 1207733, 1:5000 in TE) for 30 min at room temperature. The wells were washed 6× with 300 μL/well with PBS/0.05% Tween-20 before 75 μL/well SuperSignal LBA substrate (Pierce) was added. The plates were incubated at room temperature for 30 minutes and chemiluminescence was measured in a Wallac Victor reader. • e) Results.
The following results were obtained for HSV-1.

IC50 [µM]	SMILES
5	CN(C)Cc1cc(-c2c(-c3ccc(F)cc3)nn3c(Cl)cccc23)nc(NC2CCCC2)n1 [Example 50, 4-[7-Chloro-2-(4-fluorophenyl)pyrazolo[1,5-α]pyridin-3-yl]-N-cyclopentyl-6-[(dimethylamino)methyl]-2-pyrimidinamine]
1.5	Fc1ccc(-c2nn3c(Cl)cccc3c2-c2ccnc(NC3CCCC3)n2)cc1 [Example 26, 4-[7-Chloro-2-(4-fluorophenyl)pyrazolo[1,5-α]pyridin-3-yl]-N-cyclopentyl-2-pyrimidinamine]
0.3	CCCCNc1nccc(-c2c(-c3ccc(F)cc3)nn3c(NCCOC)cccc23)n1 [Example 48, 3-[2-(Butylamino)-4-pyrimidinyl]-2-(4-fluorophenyl)-N-(2-methoxyethyl)pyrazolo[1,5-α]pyridin-7-amine]
0.4	CCCCNc1nccc(-c2c(-c3ccc(F)cc3)nn3c(NCCN4CCOCC4)cccc23)n1 [Example 47, 3-[2-(Butylamino)-4-pyrimidinyl]-2-(4-fluorophenyl)-N-[2-(4-morpholinyl)ethyl]pyrazolo[1,5-α]pyridin-7-amine]
15	Cc1cc(-c2c(-c3ccc(F)cc3)nn3c(NCC(=O)O)cccc23)nc(NC2CCCC2)n1 [Example 25, {[3-[2-(Cyclopentylamino)-6-methyl-4-pyrimidinyl]-2-(4-fluorophenyl)pyrazolo[1,5-α]pyridin-7-yl]amino}acetic acid]
4.4	Cc1cc(-c2c(-c3ccc(F)cc3)nn3c(N)cccc23)nc(NC2CCCC2)n1 [Example 72, 3-[2-(Cyclopentylamino)-6-methylpyrimidin-4-yl]-2-(4-fluorophenyl)pyrazolo[1,5-α]pyridin-7-amine]
0.8	CCCCNc1nccc(-c2c(-c3ccc(F)cc3)nn3c(N4CCOCC4)cccc23)n1 [Example 36, N-Butyl-4-[2-(4-fluorophenyl)-7-(4-morpholinyl)pyrazolo[1,5-α]pyridin-3-yl]-2-pyrimidinamine]
> 20	CCCCNc1cccc2c(-c3ccnc(OCC(F)(F)F)n3)c(-c3ccc(F)cc3)nn12 [Example 68, N-Butyl-2-(4-fluorophenyl)-3-[2-(2,2,2-trifluoroethoxy)pyrimidin-4-yl]pyrazolo[1,5-α]pyridin-7-amine]
4.2	Fc1ccc(-c2nn3c(N4CCCC4)cccc3c2-c2ccnc(N3CCCC3)n2)cc1 [Example 69, 2-(4-Fluorophenyl)-7-pyrrolidin-1-yl-3-(2-pyrrolidin-1-ylpyrimidin-4-yl)pyrazolo[1,5-α]pyridine]
0.7	CCCCNc1nccc(-c2c(-c3ccc(Br)cc3)nn3c(NCCCC)cccc23)n1 [Example 2, 2-(4-Bromophenyl)-N-butyl-3-[2-(butylamino)-4-pyrimidinyl]pyrazolo[1,5-α]pyridin-7-amine]
> 20	Fc1ccc(-c2nn3c(Cl)cccc3c2-c2ccnc(-c3ccccc3)n2)cc1 [Example 73, 7-Chloro-2-(4-fluorophenyl)-3-(2-phenylpyrimidin-4-yl)pyrazolo[1,5-α]pyridine]
5	CCCCNc1cccc2c(-c3ccnc(NC4CCCC4)n3)c(-c3ccc(Br)cc3)nn12 [Example 10, 2-(4-Bromophenyl)-N-butyl-3-[2-(cyclopentylamino)-4-pyrimidinyl]pyrazolo[1,5-α]pyridin-7-amine]
3.9	Cc1cc(-c2c(-c3ccc(F)cc3)nn3c(Cl)cccc23)nc(NC2CCCC2)n1 [Example 7, 4-[7-Chloro-2-(4-fluorophenyl)pyrazolo[1,5-α]pyridin-3-yl]-N-cyclopentyl-6-methyl-2-pyrimidinamine]
5	CCCCNc1cccc2c(-c3ccnc(N4CCCC4)n3)c(-c3ccc(F)cc3)nn12 [Example 5, N-Butyl-2-(4-fluorophenyl)-3-[2-(1-pyrrolidinyl)-4-pyrimidinyl]pyrazolo[1,5-α]pyridin-7-amine]
8	CCCCNc1cccc2c(-c3ccnc(N4CCCC4)n3)c(-c3ccc(Br)cc3)nn12 [Example 9, 2-(4-Bromophenyl)-N-butyl-3-[2-(1-pyrrolidinyl)-4-pyrimidinyl]pyrazolo[1,5-α]pyridin-7-amine]
> 20	O=C(NC1CCCC1)c1cc(-c2c(-c3ccc(F)cc3)nn3c(Cl)cccc23)nc(NC2CCCC2)n1 [Example 74, 6-[7-Chloro-2-(4-fluorophenyl)pyrazolo[1,5-α]pyridin-3-yl]-N-cyclopentyl-2-(cyclopentylamino)pyrimidine-4-carboxamide]
> 20	O=C(NC1CCCC1)c1cc(-c2c(-c3ccc(F)cc3)nn3c(NC4CCCC4)cccc23)nc(NC2CCCC2)n1 [Example 75, N-Cyclopentyl-2-(cyclopentylamino)-6-[7-(cyclopentylamino)-2-(4-fluorophenyl)pyrazolo[1,5-α]pyridin-3-yl]pyrimidine-4-carboxamide]
5	OCc1cc(-c2c(-c3ccc(F)cc3)nn3c(NC4CCCC4)cccc23)nc(NC2CCCC2)n1 [Example 22, {2-(Cyclopentylamino)-6-[7-(cyclopentylamino)-2-(4-fluorophenyl)pyrazolo[1,5-α]pyridin-3-yl]-4-pyrimidinyl}methanol]

System: not given
Experiment: not given
Details: not given

melting point [°C]	SMILES
68 to 75	CN(C)Cc1cc(-c2c(-c3ccc(F)cc3)nn3c(Cl)cccc23)nc(NC2CCCC2)n1 [Example 50, 4-[7-Chloro-2-(4-fluorophenyl)pyrazolo[1,5-α]pyridin-3-yl]-N-cyclopentyl-6-[(dimethylamino)methyl]-2-pyrimidinamine]
